One experiment concerns the target BCL6 (Homo sapiens (Human), UniProt P41182). Briefly: Immunofluorescence high content imaging of BCL6 degradation in T47D cells. Format: cell-based.
Conditions: not given
On the procedure:
Immunofluorescence Protocol for High Cotent Imaging of BCL6
T47D cells were seeded in 100 μl volume of RPMI1640-10% FBS in a 96-well black/clear bottom plates for adherent lines (Corning #3904).
Day 1. T47D breast cancer epithelial cells were seeded at a density so that confluence is ˜70-90% at endpoint. Cells were seeded at 7K/0.1 ml/well the morning prior to the addition of exemplary bifunctional degradation compounds.
Day 2. Prepare an 11 point 3-fold serial dilution of exemplary bifunctional compound in DMSO and aliquot an appropriate volume to cell growth media to generate a 2× final concentration of exemplary bifunctional compound. Add an equal volume (0.1 ml) of 2× exemplary bifunctional compound/media mix to previously plated cells, for a final top concentration in aqueous cell growth media of 0.1 or 1 μM. Incubate for 3 days at 37° C., 5% CO2.
Day 5 Immunofluorescence. Discard cell media. Wash wells with 200 μl of room temperature phosphate-buffered saline (PBS). Prepared 4% paraformaldehyde (PFA) from 16% PFA (Electron Microscopy Sciences #15710) using 1×PBS. Fifty μl of 4% PF was added to each well and incubate for 15 minutes at room temperature to fix the cells. The PFA was aspirated and the cells washed twice with PBS (200 μl)).
Prepared 0.1% Triton X-100 in PBS using 10% triton X-100 stock. The cells were permeabilized by adding 100 ul of the 0.1% Triton X-100 in PBS to each well to permeabilize cells and incubating at room temperature for 15 minutes. Cells were washed twice with PBS.
Prepared 3% BSA/PBS (from Thermofisher #37515 Blocker BSA in TBS, 10%), and 100 ul was added to each well. The cells were incubated for at least 1 hour at room temperature.
Prepared 1% BSA/PBS using Blocker BSA/PBS, and the 3% BSA/PBS removed from the wells.
For no primary antibody controls, 50 μl 1% BSA/PBS was added.
Primary antibody (BCL6 Rb Ab, CST-14895, Cell Signaling) was diluted 1:300 in 1% BSA/PBS using Blocker BSA/PBS.
Fifty μl of primary antibody added to all remaining wells (i.e., all wells other than the primary antibody controls) and the cells were incubated overnight at 4° C. with slow orbital movement.
Day 6. Contents of the wells was removed and the cells washed four times with 200 ul PBS. 1% BSA/PBS was prepared using Blocker BSA in PBS.
Diluted secondary antibody goat anti-Rb IgG Alexa-488 1:1000, and cell mask-Alexa-647 1:3000 in 1% BSA/PBS in the same mix. Add 50 μl to each well and incubate at room temperature for 1 hour in the dark.
Cells were washed three times with 200 ul PBS, and then incubated for 10 minutes with 100 ul Hoechst dye at 1 μg/mL (20 mM stock) to stain cell nuclei. Wells were then washed with 200 μl PBS, and 100 ul of PBS was added to each well and the plate covered plate with a plastic opaque cover. Plates were stored at 4° C. and covered in aluminum foil until imaged.
Plates were equilibrated to room temperature prior to reading. The bottom of the plate was wiped with 70% isopropanol immediately prior to imaging.
10×, 4 fields/well, include Top hat smoothing in the analysis protocol.
As a reminder, the IC50 is the point on the concentration scale where inhibition reaches its midpoint. A lower IC50 goes with greater potency in that assay. In the case of `CNC(=O)COc1cc2cc(Nc3nc(N4CCN(CC5CCN(c6ccc7c(c6)C(=O)N(C6CCC(=O)NC6=O)C7=O)CC5)CC4)ncc3Cl)ccc2n(C(C)C)c1=O` (stereo not shown) [Exemplary Compound 263, 2-[[6-([5-chloro-2-[4-([1-[2-(2,6-dioxopiperidin-3-yl)-1,3-dioxoisoindol-5-yl]piperidin-4-yl]methyl)piperazin-1-yl]pyrimidin-4-yl]amino)-1-isopropyl-2-oxoquinolin-3-yl]oxy]-N-methylacetamide], the IC50 lay in the range of 10 to 50 nM.

Still in this experiment, the particulars now being: T47D.
One may read the Dmax as the largest share of the target that was removed. Read a high Dmax as a fuller loss of target. Molecule `CNC(=O)COc1cc2cc(Nc3nc(N4CCN(CC5CCN(c6ccc7c(c6)C(=O)N(C6CCC(=O)NC6=O)C7=O)CC5)CC4)ncc3Cl)ccc2n(C(C)C)c1=O` (stereo not shown) [Exemplary Compound 263, 2-[[6-([5-chloro-2-[4-([1-[2-(2,6-dioxopiperidin-3-yl)-1,3-dioxoisoindol-5-yl]piperidin-4-yl]methyl)piperazin-1-yl]pyrimidin-4-yl]amino)-1-isopropyl-2-oxoquinolin-3-yl]oxy]-N-methylacetamide] showed a Dmax of 50 to 70%.

Staying with this experiment, now noted: T47D cells.
For the molecule `CNC(=O)COc1cc2cc(Nc3nc(N4CCC(CN5[C@H](C)CN(c6cccc(C(=O)NC7CCC(=O)NC7=O)c6F)C[C@@H]5C)CC4)ncc3Cl)ccc2n(C)c1=O` (mixture of isomers) [compound 370, rac-3-[(3R,5S)-4-({1-[5-chloro-4-({1-methyl-3-[(methylcarbamoyl)methoxy]-2-oxo-1,2-dihydroquinolin-6-yl}amino)pyrimidin-2-yl]piperidin-4-yl}methyl)-3,5-dimethylpiperazin-1-yl]-N-(2,6-dioxopiperidin-3-yl)-2-fluorobenzamide], the Dmax is 50 to 70% and the IC50 fell in the range of 10 to 50 nM.
`CNC(=O)COc1cc2cc(Nc3nc(N4CCC(CN5[C@H](C)CN(c6cccc7c6C(=O)N(C6CCC(=O)NC6=O)C7=O)C[C@@H]5C)CC4)ncc3Cl)ccc2n(C(C)C)c1=O` (mixture of isomers) [compound 381, rac-2-[(6-{[5-chloro-2-(4-{[(2R,6S)-4-[2-(2,6-dioxopiperidin-3-yl)-1,3-dioxo-2,3-dihydro-1H-isoindol-4-yl]-2,6-dimethylpiperazin-1-yl]methyl}piperidin-1-yl)pyrimidin-4-yl]amino}-2-oxo-1-(propan-2-yl)-1,2-dihydroquinolin-3-yl)oxy]-N-methylacetamide] gave a Dmax of 50 to 70% and an IC50 of less than 10 nM.

Staying with this experiment, now noted: class symbols A-D, read-out: EC50 (nM)*.
Regarding `CNC(=O)COc1cc2cc(Nc3nc(N4CCC(OCCOCCOCCOc5cc(-c6scnc6C)ccc5CNC(=O)[C@@H]5C[C@@H](O)CN5C(=O)[C@H](c5cc(C)no5)C(C)C)CC4)ncc3Cl)ccc2n(C)c1=O` [compound 49, (2S,4R)-N-(2-(2-(2-(2-((1-(5-chloro-4-((1-methyl-3-(2-(methylamino)-2-oxoethoxy)-2-oxo-1,2-dihydroquinolin-6-yl)amino)pyrimidin-2-yl)piperidin-4-yl)oxy)ethoxy)ethoxy)ethoxy)-4-(4-methylthiazol-5-yl)benzyl)-4-hydroxy-1-((S)-3-methyl-2-(3-methylisoxazol-5-yl)butanoyl)pyrrolidine-2-carboxamide], the DC50 is greater than 100 nM.
Still for that read-out and setting: as for `CNC(=O)COc1cc2cc(Nc3nc(N4CCC(OCCOCCOCCOc5cc(-c6scnc6C)ccc5CNC(=O)[C@@H]5C[C@@H](O)CN5C(=O)[C@@H](c5cc(C)no5)C(C)C)CC4)ncc3Cl)ccc2n(C)c1=O` [compound 50, (2S,4R)-N-(2-(2-(2-(2-((1-(5-chloro-4-((1-methyl-3-(2-(methylamino)-2-oxoethoxy)-2-oxo-1,2-dihydroquinolin-6-yl)amino)pyrimidin-2-yl)piperidin-4-yl)oxy)ethoxy)ethoxy)ethoxy)-4-(4-methylthiazol-5-yl)benzyl)-4-hydroxy-1-((R)-3-methyl-2-(3-methylisoxazol-5-yl)butanoyl)pyrrolidine-2-carboxamide], the figure is greater than 100 nM.
Same read-out and setting: under `CNC(=O)COc1cc2cc(Nc3nc(N4CCC(OCCOCCOCCOCC(=O)N[C@H](C(=O)N5C[C@H](O)C[C@H]5C(=O)NCc5ccc(-c6scnc6C)cc5)C(C)(C)C)CC4)ncc3Cl)ccc2n(C)c1=O` [compound 51, (2S,4R)-1-((S)-2-(tert-butyl)-14-((1-(5-chloro-4-((1-methyl-3-(2-(methylamino)-2-oxoethoxy)-2-oxo-1,2-dihydroquinolin-6-yl)amino)pyrimidin-2-yl)piperidin-4-yl)oxy)-4-oxo-6,9,12-trioxa-3-azatetradecanoyl)-4-hydroxy-N-(4-(4-methylthiazol-5-yl)benzyl)pyrrolidine-2-carboxamide] stands greater than 100 nM; under `CNC(=O)COc1cc2cc(Nc3nc(N4CCC(OCCOCCOCCOc5ccc6c(c5)C(=O)N(C5CCC(=O)NC5=O)C6=O)CC4)ncc3Cl)ccc2n(C)c1=O` (stereo not shown) [compound 52, 2-((6-((5-chloro-2-(4-(2-(2-(2-((2-(2,6-dioxopiperidin-3-yl)-1,3-dioxoisoindolin-5-yl)oxy)ethoxy)ethoxy)ethoxy)piperidin-1-yl)pyrimidin-4-yl)amino)-1-methyl-2-oxo-1,2-dihydroquinolin-3-yl)oxy)-N-methylacetamide], 50 to 100 nM.
Same read-out and setting: under `CNC(=O)COc1cc2cc(Nc3nc(N4CCC(OCCOCCOc5cc(-c6scnc6C)ccc5CNC(=O)[C@@H]5C[C@@H](O)CN5C(=O)C(c5cc(C)no5)C(C)C)CC4)ncc3Cl)ccc2n(C)c1=O` (stereo partly drawn) [compound 53, (2S,4R)-N-(2-(2-(2-((1-(5-chloro-4-((1-methyl-3-(2-(methylamino)-2-oxoethoxy)-2-oxo-1,2-dihydroquinolin-6-yl)amino)pyrimidin-2-yl)piperidin-4-yl)oxy)ethoxy)ethoxy)-4-(4-methylthiazol-5-yl)benzyl)-4-hydroxy-1-(3-methyl-2-(3-methylisoxazol-5-yl)butanoyl)pyrrolidine-2-carboxamide] stands greater than 100 nM; under `CNC(=O)COc1cc2cc(Nc3nc(N4CCC(OCCOCCOCCOCCOc5cc(-c6scnc6C)ccc5CNC(=O)[C@@H]5C[C@@H](O)CN5C(=O)C(c5cc(C)no5)C(C)C)CC4)ncc3Cl)ccc2n(C)c1=O` (stereo partly drawn) [compound 54, (2S,4R)-N-(2-(2-(2-(2-(2-((1-(5-chloro-4-((1-methyl-3-(2-(methylamino)-2-oxoethoxy)-2-oxo-1,2-dihydroquinolin-6-yl)amino)pyrimidin-2-yl)piperidin-4-yl)oxy)ethoxy)ethoxy)ethoxy)ethoxy)-4-(4-methylthiazol-5-yl)benzyl)-4-hydroxy-1-(3-methyl-2-(3-methylisoxazol-5-yl)butanoyl)pyrrolidine-2-carboxamide], greater than 100 nM.
Turning to `CNC(=O)COc1cc2cc(Nc3nc(N4CCC(OCCOCCOCCOCCOCCOc5cc(-c6scnc6C)ccc5CNC(=O)[C@@H]5C[C@@H](O)CN5C(=O)C(c5cc(C)no5)C(C)C)CC4)ncc3Cl)ccc2n(C)c1=O` (stereo partly shown) [compound 55], the DC50 was greater than 100 nM.
On to `CNC(=O)COc1cc2cc(Nc3nc(N4CCC(OCCOc5cc(-c6scnc6C)ccc5CNC(=O)[C@@H]5C[C@@H](O)CN5C(=O)C(c5cc(C)no5)C(C)C)CC4)ncc3Cl)ccc2n(C)c1=O` (stereo partly drawn) [compound 56, (2S,4R)—N-(2-(2-((1-(5-chloro-4-((1-methyl-3-(2-(methylamino)-2-oxoethoxy)-2-oxo-1,2-dihydroquinolin-6-yl)amino)pyrimidin-2-yl)piperidin-4-yl)oxy)ethoxy)-4-(4-methylthiazol-5-yl)benzyl)-4-hydroxy-1-(3-methyl-2-(3-methylisoxazol-5-yl)butanoyl)pyrrolidine-2-carboxamide], for which the DC50 is greater than 100 nM.
With `CNC(=O)COc1cc2cc(Nc3nc(N4CCC(OCCOCCOCCNc5cccc6c5C(=O)N(C5CCC(=O)NC5=O)C6=O)CC4)ncc3Cl)ccc2n(C)c1=O` (stereo not shown) [compound 57, 2-((6-((5-chloro-2-(4-(2-(2-(2-((2-(2,6-dioxopiperidin-3-yl)-1,3-dioxoisoindolin-4-yl)amino)ethoxy)ethoxy)ethoxy)piperidin-1-yl)pyrimidin-4-yl)amino)-1-methyl-2-oxo-1,2-dihydroquinolin-3-yl)oxy)-N-methylacetamide], the DC50 is greater than 100 nM.
The same measure, in the same setting: as for `CNC(=O)COc1cc2cc(Nc3nc(N4CCC(OCCOCCOCCOCCOCCOCCOc5cc(-c6scnc6C)ccc5CNC(=O)[C@@H]5C[C@@H](O)CN5C(=O)C(c5cc(C)no5)C(C)C)CC4)ncc3Cl)ccc2n(C)c1=O` (stereo partly drawn) [compound 58, (2S,4R)-N-(2-((17-((1-(5-chloro-4-((1-methyl-3-(2-(methylamino)-2-oxoethoxy)-2-oxo-1,2-dihydroquinolin-6-yl)amino)pyrimidin-2-yl)piperidin-4-yl)oxy)-3,6,9,12,15-pentaoxaheptadecyl)oxy)-4-(4-methylthiazol-5-yl)benzyl)-4-hydroxy-1-(3-methyl-2-(3-methylisoxazol-5-yl)butanoyl)pyrrolidine-2-carboxamide], the figure is greater than 100 nM.

(Values after US12310975B2, “Modulators of BCL6 proteolysis and associated methods of use” (Arvinas Operations, Inc., priority 2019, dated 2025).)
